According to US20080096850A1 (priority 2001, published 2008):

How the values were obtained:
Type in all cases: cell-based, Staphylococcus aureus
S. aureus (MN8) = tested on: S. aureus (MN8)
[1] = tested on: TSST-1 production by S. aureus (MN8)
[2] = tested on: TSST-1 production by S. aureus FRI-1187
[3] = tested on: TSST-1 production by S. aureus FRI-1169

Compound	CFU/mL (S. aureus (MN8))	Optical Density 600 nm (S. aureus (MN8))	ELISA: TSST-1 ng/OD unit [1]	ELISA: TSST-1 ng/OD unit [2]	Reduction of Toxin % [2]	ELISA: TSST-1 ng/OD unit [3]	Reduction of Toxin % [3]
4-hydroxydiphenyl methane [4-Hydroxydiphenyl-methane]	1.1E+08 CFU/mL	0.581	785 ng/OD unit				
Oc1c(Cl)cc(Cl)c(Cl)c1Cc1c(O)c(Cl)cc(Cl)c1Cl [Hexachlorophene, hexachlorophene]			330 ng/OD unit				
Oc1cc(Cl)ccc1Oc1ccc(Cl)cc1Cl [Triclosan, triclosan]				95 ng/OD unit	86%	40 ng/OD unit	96%
